Laboratory results: US7407966B2, “Thienopyridinone compounds and methods of treatment” (Epix Delaware, Inc., priority 2004, dated 2008)

Molecular target: 5-HT4e receptor (Homo sapiens, UniProt Q13639)
Test: 5-HT4e receptor binding affinity assay
Conditions: binding affinity to 5-HT4e receptors
Protocol: Compounds of the invention synthesized above and their binding affinity to 5-HT4e receptors was determined.

Chain of 5-HT4e receptor (Q13639 1-378 isoform Q13639-5): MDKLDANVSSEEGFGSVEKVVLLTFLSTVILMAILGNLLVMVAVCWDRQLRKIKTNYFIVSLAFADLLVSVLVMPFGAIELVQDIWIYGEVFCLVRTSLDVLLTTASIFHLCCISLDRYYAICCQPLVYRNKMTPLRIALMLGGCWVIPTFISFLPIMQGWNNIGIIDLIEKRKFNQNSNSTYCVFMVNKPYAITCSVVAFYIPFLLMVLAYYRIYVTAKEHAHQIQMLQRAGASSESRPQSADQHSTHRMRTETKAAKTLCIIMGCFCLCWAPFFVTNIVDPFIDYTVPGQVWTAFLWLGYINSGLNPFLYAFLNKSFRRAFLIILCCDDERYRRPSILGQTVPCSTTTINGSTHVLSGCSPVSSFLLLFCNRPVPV

SMILES	Ki [nM]
CC(C)n1c(=O)c(C(=O)NC2CCN(CCc3ccccc3)CC2)c(O)c2ccsc21 [Example 7, 6,7-Dihydro-4-hydroxy-7-isopropyl-6-oxo-N-(1-phenethylpiperidin-4-yl)thieno[2,3-b]pyridine-5-carboxamide]	100
CCCN1CCC(NC(=O)c2c(O)c3ccsc3n(C(C)C)c2=O)CC1 [Example 2, 6,7-Dihydro-4-hydroxy-7-isopropyl-6-oxo-N-(1-propylpiperidin-4-yl)thieno[2,3-b]pyridine-5-carboxamide]	33
CC(C)n1c(=O)c(C(=O)NC2CCN(CC3CC3)CC2)c(O)c2ccsc21 [Example 5, N-(1-(Cyclopropylmethyl)piperidin-4-yl)-6,7-dihydro-4-hydroxy-7-isopropyl-6-oxothieno[2,3-b]pyridine-5-carboxamide]	62
CCCCCN1CCC(NC(=O)c2c(O)c3ccsc3n(C(C)C)c2=O)CC1 [Example 8, 6,7-Dihydro-4-hydroxy-7-isopropyl-6-oxo-N-(1-pentylpiperidin-4-yl)thieno[2,3-b]pyridine-5-carboxamide]	47
CCCN1CCC(NC(=O)c2c(O)c3ccsc3n(CC)c2=O)CC1 [Example 9, 6,7-Dihydro-7-ethyl-4-hydroxy-6-oxo-N-(1-propylpiperidin-4-yl)thieno[2,3-b]pyridine-5-carboxamide]	31
CCN1CCC(NC(=O)c2c(O)c3ccsc3n(C(C)C)c2=O)CC1 [Example 1, 6,7-Dihydro-N-(1-ethylpiperidin-4-yl)-4-hydroxy-7-isopropyl-6-oxothieno[2,3-b]pyridine-5-carboxamide]	81
CCCCN1CCC(NC(=O)c2c(O)c3ccsc3n(C(C)C)c2=O)CC1 [Example 3, N-(1-Butylpiperidin-4-yl)-6,7-dihydro-4-hydroxy-7-isopropyl-6-oxothieno[2,3-b]pyridine-5-carboxamide]	47
CC(C)CN1CCC(NC(=O)c2c(O)c3ccsc3n(C(C)C)c2=O)CC1 [Example 6, 6,7-Dihydro-4-hydroxy-N-(1-isobutylpiperidin-4-yl)-7-isopropyl-6-oxothieno[2,3-b]pyridine-5-carboxamide]	220
CC(C)n1c(=O)c(C(=O)NC2CCN(CCCO)CC2)c(O)c2ccsc21 [Example 4, 6,7-Dihydro-4-hydroxy-N-(1-(3-hydroxypropyl)piperidin-4-yl)-7-isopropyl-6-oxothieno[2,3-b]pyridine-5-carboxamide]	31
CCn1c(=O)c(C(=O)NC2CCN(CCCO)CC2)c(O)c2ccsc21 [Example 10, 6,7-Dihydro-7-ethyl-4-hydroxy-N-(1-(3-hydroxypropyl)piperidin-4-yl)-6-oxothieno[2,3-b]pyridine-5-carboxamide]	100
